Molecular target: T1, PIKFYVE (Homo sapiens, UniProt Q9Y2I7)
T1 construct: purchased Eurofins (KINOMEscan); host or cells: E. coli BL21-derived (T7 phage display) or HEK-293
Experiment: KINOMEscan Kinase Assay (Eurofins), PIKFYVE inhibitory activity
Assay type: binding
Details: for IC50: KINOMEscan; for inhibition at 0.005 µM: @ 5 nM; for inhibition at 0.003 µM: @ 3 nM

T1 sequence (Q9Y2I7 whole entry): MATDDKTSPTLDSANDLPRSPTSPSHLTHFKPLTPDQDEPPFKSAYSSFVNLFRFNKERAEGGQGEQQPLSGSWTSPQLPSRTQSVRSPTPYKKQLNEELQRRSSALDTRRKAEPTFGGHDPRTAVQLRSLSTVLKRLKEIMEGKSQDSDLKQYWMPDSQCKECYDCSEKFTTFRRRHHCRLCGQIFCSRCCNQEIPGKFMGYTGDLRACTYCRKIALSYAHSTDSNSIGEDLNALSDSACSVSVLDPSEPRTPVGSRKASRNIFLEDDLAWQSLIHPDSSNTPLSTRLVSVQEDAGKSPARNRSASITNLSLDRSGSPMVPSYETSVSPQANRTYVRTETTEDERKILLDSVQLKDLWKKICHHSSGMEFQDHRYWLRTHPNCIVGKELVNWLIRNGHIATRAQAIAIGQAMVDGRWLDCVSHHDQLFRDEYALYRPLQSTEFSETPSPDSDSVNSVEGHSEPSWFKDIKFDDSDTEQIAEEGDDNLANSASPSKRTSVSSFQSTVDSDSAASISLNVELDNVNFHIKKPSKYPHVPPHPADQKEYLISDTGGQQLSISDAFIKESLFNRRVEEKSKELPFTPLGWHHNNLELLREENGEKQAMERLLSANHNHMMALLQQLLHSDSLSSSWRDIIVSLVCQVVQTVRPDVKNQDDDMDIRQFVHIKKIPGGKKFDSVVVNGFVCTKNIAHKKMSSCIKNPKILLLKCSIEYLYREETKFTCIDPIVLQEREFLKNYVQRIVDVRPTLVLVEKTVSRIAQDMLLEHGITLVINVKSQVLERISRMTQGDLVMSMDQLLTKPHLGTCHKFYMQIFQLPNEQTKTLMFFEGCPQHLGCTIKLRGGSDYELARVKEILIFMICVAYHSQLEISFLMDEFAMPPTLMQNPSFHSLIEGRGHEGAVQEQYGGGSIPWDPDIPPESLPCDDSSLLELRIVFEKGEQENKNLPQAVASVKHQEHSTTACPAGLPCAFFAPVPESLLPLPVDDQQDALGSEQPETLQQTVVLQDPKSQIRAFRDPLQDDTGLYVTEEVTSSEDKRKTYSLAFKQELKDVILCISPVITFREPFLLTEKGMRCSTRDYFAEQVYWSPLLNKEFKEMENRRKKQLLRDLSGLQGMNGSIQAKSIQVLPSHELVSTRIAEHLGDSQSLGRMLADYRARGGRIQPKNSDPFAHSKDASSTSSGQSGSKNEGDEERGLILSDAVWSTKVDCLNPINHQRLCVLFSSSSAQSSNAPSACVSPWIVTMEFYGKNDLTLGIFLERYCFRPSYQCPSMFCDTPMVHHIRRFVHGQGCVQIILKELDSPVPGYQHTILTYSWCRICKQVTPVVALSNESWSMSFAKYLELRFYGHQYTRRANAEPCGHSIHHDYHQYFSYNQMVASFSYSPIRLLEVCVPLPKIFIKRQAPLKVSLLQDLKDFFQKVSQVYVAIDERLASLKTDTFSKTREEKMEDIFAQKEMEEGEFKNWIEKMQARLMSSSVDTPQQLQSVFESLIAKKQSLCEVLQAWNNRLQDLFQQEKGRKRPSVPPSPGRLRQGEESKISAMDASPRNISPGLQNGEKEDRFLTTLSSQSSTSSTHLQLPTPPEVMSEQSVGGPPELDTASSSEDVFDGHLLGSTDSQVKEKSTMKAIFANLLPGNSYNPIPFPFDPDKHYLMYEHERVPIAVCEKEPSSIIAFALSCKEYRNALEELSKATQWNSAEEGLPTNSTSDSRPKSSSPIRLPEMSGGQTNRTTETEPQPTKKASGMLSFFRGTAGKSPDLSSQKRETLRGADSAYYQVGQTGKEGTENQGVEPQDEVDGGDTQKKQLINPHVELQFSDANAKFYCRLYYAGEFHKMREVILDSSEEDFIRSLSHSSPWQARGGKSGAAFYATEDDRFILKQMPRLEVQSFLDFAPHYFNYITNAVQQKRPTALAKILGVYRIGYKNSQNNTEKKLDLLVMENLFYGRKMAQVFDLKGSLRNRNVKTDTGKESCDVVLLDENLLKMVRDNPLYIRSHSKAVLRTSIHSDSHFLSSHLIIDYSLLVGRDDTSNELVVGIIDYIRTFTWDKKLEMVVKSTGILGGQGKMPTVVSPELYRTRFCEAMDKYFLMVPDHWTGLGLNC

Row | SMILES | IC50 [nM] | further results
1 | Cc1cccc(-c2ccn(-c3cc(N4CCOCC4)c4nc(CN5CCC(C(C)(C)O)CC5)n(C)c4n3)n2)c1 [Ex. 76, 2-(1-((3-methyl-7-morpholino-5-(3-(m-tolyl)-1H-pyrazol-1-yl)-3H-imidazo[4,5-b]pyridin-2-yl)methyl)piperidin-4-yl)propan-2-ol] | < 1 | 
2 | Brc1ccn(-c2cc(N3CCOCC3)c3sc(CN4CCOCC4)cc3n2)n1 [Ex. 173, 4-(5-(3-Bromo-1H-pyrazol-1-yl)-2-(morpholinomethyl)thieno[3,2-b]pyridin-7-yl)morpholine] |  | inhibition at 0.005 µM: 8%
3 | Cc1cccc(-c2ccn(-c3nc(N4CCOCC4)c4nc(-c5cnn(C)c5)sc4n3)n2)c1 [Ex. 49, 4-(2-(1-methyl-1H-pyrazol-4-yl)-5-(3-(m-tolyl)-1H-pyrazol-1-yl)thiazolo[5,4-d]pyrimidin-7-yl)morpholine] | < 1 | 
4 | Cc1cccc(-c2ccn(-c3nc(N4CCOCC4)c4sc(CN5CCC(N6CCC6)C(F)C5)cc4n3)n2)c1 (stereo not drawn) | < 1 | 
5 | Cc1cccc(-c2ccn(-c3nc(N4CCOCC4)c4sc(C(C)N5CCN(S(C)(=O)=O)CC5)cc4n3)n2)c1 (stereo not drawn) [Ex. 26, 4-(6-(1-(4-(methylsulfonyl)piperazin-1-yl)ethyl)-2-(3-(m-tolyl)-1H-pyrazol-1-yl)thieno[3,2-d]pyrimidin-4-yl)morpholine] | 1 to 10 | 
6 | Cc1cccc(-c2ccn(-c3nc(N4CCOCC4)c4sc(-c5cnn(C)c5)cc4n3)n2)c1 [Ex. 37, 4-(6-(1-methyl-1H-pyrazol-4-yl)-2-(3-(m-tolyl)-1H-pyrazol-1-yl)thieno[3,2-d]pyrimidin-4-yl)morpholine] | < 1 | 
7 | Cc1cccc(-c2ccn(-c3cc(N4CCOCC4)c4nc(CN5CCN(S(C)(=O)=O)CC5)[nH]c4n3)n2)c1 [Ex. 27, 4-(2-((4-(methylsulfonyl)piperazin-1-yl)methyl)-5-(3-(m-tolyl)-1H-pyrazol-1-yl)-3H-imidazo[4,5-b]pyridin-7-yl)morpholine] | < 1 | 
8 | Cc1cccc(-c2ccn(-c3nc(N4CCC(=O)C4)c4sc(CN5CCN(S(C)(=O)=O)CC5)cc4n3)n2)c1 [Ex. 129, 1-(6-((4-(methylsulfonyl)piperazin-1-yl)methyl)-2-(3-(m-tolyl)-1H-pyrazol-1-yl)thieno[3,2-d]pyrimidin-4-yl)pyrrolidin-3-one] |  | inhibition at 0.03 µM (@ 30 nM): 92%
9 | Cc1cccc(-c2ccn(-c3nc(N4CCOCC4)c4sc(C(=O)N5CCC(C(C)(C)O)CC5)c(C)c4n3)n2)c1 [Ex. 61, (4-(2-hydroxypropan-2-yl)piperidin-1-yl)(7-methyl-4-morpholino-2-(3-(m-tolyl)-1H-pyrazol-1-yl)thieno[3,2-d]pyrimidin-6-yl)methanone] | < 1 | 
10 | Cc1cccc(-c2ccn(-c3cc(N4CCOCC4)c4nc(CN5CC[C@H](N(C)C)C5)[nH]c4n3)n2)c1 [Ex. 46, (S)—N,N-dimethyl-1-((7-morpholino-5-(3-(m-tolyl)-1H-pyrazol-1-yl)-3H-imidazo[4,5-b]pyridin-2-yl)methyl)pyrrolidin-3-amine] | < 1 | 
11 | COC1(c2sc3c(N4CCOCC4)nc(-n4ccc(-c5cccc(C)c5)n4)nc3c2C)COC1 [Ex. 65, 4-(6-(3-methoxyoxetan-3-yl)-7-methyl-2-(3-(m-tolyl)-1H-pyrazol-1-yl)thieno[3,2-d]pyrimidin-4-yl)morpholine] | 1 to 10 | 
12 | Cc1cccc(-c2ccn(-c3cc(N4CCOCC4)c4sc(CN5CCOCC5)c(C)c4n3)n2)c1 [Ex. 167, 4-(3-Methyl-2-(morpholinomethyl)-5-(3-(m-tolyl)-1H-pyrazol-1-yl)thieno[3,2-b]pyridin-7-yl)morpholine] |  | inhibition at 0.003 µM: 0%
13 | Cc1cccc(-c2ccn(-c3nc(N4CCOCC4)c4sc(N5CCN(S(C)(=O)=O)CC5)cc4n3)n2)c1 [Ex. 165, 4-(6-(4-(methylsulfonyl)piperazin-1-yl)-2-(3-(m-tolyl)-1H-pyrazol-1-yl)thieno[3,2-d]pyrimidin-4-yl)morpholine] |  | inhibition at 0.003 µM: 22%
14 | Cc1cccc(-c2ccn(-c3nc(N4CCOCC4)c4sc(C(=O)N5CC[C@@H](N(C)C)C5)c(C)c4n3)n2)c1 [Ex. 60, (R)-(3-(dimethylamino)pyrrolidin-1-yl)(7-methyl-4-morpholino-2-(3-(m-tolyl)-1H-pyrazol-1-yl)thieno[3,2-d]pyrimidin-6-yl)methanone] | 1 to 10 | 
15 | Cc1cccc(-c2ccn(-c3nc(N4CCOCC4)c4sc(CN5CC[C@H](N(C)C)C5)cc4n3)n2)c1 [Ex. 19, (S)—N,N-dimethyl-1-((4-morpholino-2-(3-(m-tolyl)-1H-pyrazol-1-yl)thieno[3,2-d]pyrimidin-6-yl)methyl)pyrrolidin-3-amine] | < 1 | 
16 | Cc1cccc(-c2ccn(-c3nc(N4CCOCC4)c4sc(CN5CCC(N6CCC6)C(F)C5)c(C)c4n3)n2)c1 (stereo not drawn) [Ex. 58, 4-(6-((4-(azetidin-1-yl)-3-fluoropiperidin-1-yl)methyl)-7-methyl-2-(3-(m-tolyl)-1H-pyrazol-1-yl)thieno[3,2-d]pyrimidin-4-yl)morpholine] | < 1 | 
17 | Cc1cccc(-c2ccn(-c3nc(N4CCOCC4)c4sc(CN5CCN(C)CC5)cc4n3)n2)c1 [Ex. 31, 4-(6-((4-methylpiperazin-1-yl)methyl)-2-(3-(m-tolyl)-1H-pyrazol-1-yl)thieno[3,2-d]pyrimidin-4-yl)morpholine] | 1 to 10 | 

Row | SMILES | IC50 [nM] | further results
18 | Cc1cccc(-c2ccn(-c3nc(N4CCOCC4)c4sc(CN5CC(N(C)C)C5)cc4n3)n2)c1 [Ex. 32, N,N-dimethyl-1-((4-morpholino-2-(3-(m-tolyl)-1H-pyrazol-1-yl)thieno[3,2-d]pyrimidin-6-yl)methyl)azetidin-3-amine] | < 1 | 
19 | Cc1cccc(-c2ccn(-c3cc(N4CCOCC4)c4nc(CN5CC[C@@H](N(C)C)C5)[nH]c4n3)n2)c1 [Ex. 41, (R)—N,N-dimethyl-1-((7-morpholino-5-(3-(m-tolyl)-1H-pyrazol-1-yl)-3H-imidazo[4,5-b]pyridin-2-yl)methyl)pyrrolidin-3-amine] | < 1 | 
20 | Cc1cccc(-c2ccn(-c3nc(N4CCOCC4)c4sc(C(=O)N5CCC(N(C)C)CC5)cc4n3)n2)c1 [Ex. 23, (4-(dimethylamino)piperidin-1-yl)(4-morpholino-2-(3-(m-tolyl)-1H-pyrazol-1-yl)thieno[3,2-d]pyrimidin-6-yl)methanone] | < 1 | 
21 | Cc1cccc(-c2ccn(-c3nc(N4CCOCC4)c4nc(CN5CCN(S(C)(=O)=O)CC5)[nH]c4n3)n2)c1 [Ex. 10, 4-(8-((4-(methylsulfonyl)piperazin-1-yl)methyl)-2-(3-(m-tolyl)-1H-pyrazol-1-yl)-9H-purin-6-yl)morpholine] | < 1 | 
22 | Cc1cccc(-c2ccn(-c3cc(N4CCOCC4)c4nc(CO)n(C)c4n3)n2)c1 [Ex. 75, (3-methyl-7-morpholino-5-(3-(m-tolyl)-11H-pyrazol-1-yl)-3H-imidazo[4,5-b]pyridin-2-yl)methanol] | 1 to 10 | 
23 | Cc1cccc(-c2ccn(-c3cc(N4CCOCC4)c4nc(CN5CCC(N(C)C)CC5)[nH]c4n3)n2)c1 [Ex. 28, N,N-dimethyl-1-((7-morpholino-5-(3-(m-tolyl)-1H-pyrazol-1-yl)-3H-imidazo[4,5-b]pyridin-2-yl)methyl)piperidin-4-amine] | < 1 | 
24 | Cc1cccc(-c2ccn(-c3nc(N4CCOCC4)c4sc(C(=O)N5CC[C@@H](N(C)C)C5)cc4n3)n2)c1 [Ex. 21, (R)-(3-(dimethylamino)pyrrolidin-1-yl)(4-morpholino-2-(3-(m-tolyl)-1H-pyrazol-1-yl)thieno[3,2-d]pyrimidin-6-yl)methanone] | < 1 | 
25 | CC(O)c1cccc(-c2ccn(-c3cc(N4CCOCC4)c4sc(CN5CCOCC5)cc4n3)n2)c1 (stereo not drawn) [Ex. 193, 1-(3-(1-(7-Morpholino-2-(morpholinomethyl)thieno[3,2-b]pyridin-5-yl)-1H-pyrazol-3-yl)phenyl)ethan-1-ol] |  | inhibition at 0.005 µM: 22%
26 | Cc1cccc(-c2ccn(-c3cc(N4CCOCC4)c4sc(CN5CCN(S(C)(=O)=O)CC5)cc4n3)n2)c1 [Ex. 68, 4-(2-((4-(methylsulfonyl)piperazin-1-yl)methyl)-5-(3-(m-tolyl)-1H-pyrazol-1-yl)thieno[3,2-b]pyridin-7-yl)morpholine] | < 1 | 
27 | Cc1cccc(-c2ccn(-c3cc(N4CCOCC4)c4nc(CN5CCN(C)CC5)[nH]c4n3)n2)c1 [Ex. 39, 4-(2-((4-methylpiperazin-1-yl)methyl)-5-(3-(m-tolyl)-1H-pyrazol-1-yl)-3H-imidazo[4,5-b]pyridin-7-yl)morpholine] | < 1 | 
28 | Cc1cccc(-c2ccn(-c3cc(N4CCOCC4)c4sc(CN5CCC(N(C)C)C(F)C5)cc4n3)n2)c1 (stereo not drawn) [Ex. 69, 3-fluoro-N,N-dimethyl-1-((7-morpholino-5-(3-(m-tolyl)-1H-pyrazol-1-yl)thieno[3,2-b]pyridin-2-yl)methyl)piperidin-4-amine] | < 1 | 
29 | Cc1cccc(-c2ccn(-c3cc(N4CCOCC4)c4nc(CN5CC(N(C)C)C5)[nH]c4n3)n2)c1 [Ex. 48, N,N-dimethyl-1-((7-morpholino-5-(3-(m-tolyl)-1H-pyrazol-1-yl)-3H-imidazo[4,5-b]pyridin-2-yl)methyl)azetidin-3-amine] | 1 to 10 | 
30 | Cc1cccc(-c2ccn(-c3cc(N4CCOCC4)c4nc(CN5CCOCC5)n(C)c4n3)n2)c1 [Ex. 74, 4-(3-methyl-2-(morpholinomethyl)-5-(3-(m-tolyl)-1H-pyrazol-1-yl)-3H-imidazo[4,5-b]pyridin-7-yl)morpholine] | < 1 | 
31 | Cc1cccc(-c2ccn(-c3nc(N4CCOCC4)c4sc(CN5CCC(N(C)C)C(F)C5)c(C)c4n3)n2)c1 (stereo not drawn) [Ex. 55, 3-fluoro-N,N-dimethyl-1-((7-methyl-4-morpholino-2-(3-(m-tolyl)-1H-pyrazol-1-yl)thieno[3,2-d]pyrimidin-6-yl)methyl)piperidin-4-amine] | < 1 | 
32 | CO[C@@H](C)c1cccc(-c2ccn(-c3cc(N4CCOCC4)c4sc(CN5CCOCC5)cc4n3)n2)c1 (single isomer, unassigned) [Ex. 212, 4-(5-(3-(3-(1-methoxyethyl)phenyl)-1H-pyrazol-1-yl)-2-(morpholinomethyl)thieno[3,2-b]pyridin-7-yl)morpholine] |  | inhibition at 0.005 µM: 0%
33 | Cc1cccc(-c2ccn(-c3nc(N4CCOCC4)c4nc(CN5CCC(N(C)C)CC5)sc4n3)n2)c1 [Ex. 16, N,N-dimethyl-1-((7-morpholino-5-(3-(m-tolyl)-1H-pyrazol-1-yl)thiazolo[5,4-d]pyrimidin-2-yl)methyl)piperidin-4-amine] | < 1 | 

Source: patent publication US20230265103A1 (TME Therapeutics LLC, priority 2021, published 2023)
